Our source for the melting point values is a melting point compilation (Tetko et al.; mined from patent text by program, amines drawn as free bases though some values may be those of a salt).

Non-standard residues stand in square brackets, D forms with d. Residues, ends and D or L forms follow the SMILES beside them. ξ: configuration not given here. *: point of attachment. Boc = CC(C)(C)OC(=O)*; Dha = C=C(N)C(=O)O; ξP = O=C(O)C1CCCN1

In general, melting point refers to the temperature of the solid-liquid transition. `Cn1nc(N)c2sc3cc(O)c(O)cc3c21` registered a melting point of 305 to 307 °C. With `CCC(Oc1cc(Cl)cc(Cl)c1)C(=O)NC(C)(C)C#CCCO` (centres undefined), the melting point lay within 104 to 106 °C. For `O=C1C(=O)c2ccccc2C2=C1SCC(CNCc1ccccc1)O2` (centres undefined), the melting point was in the range of 60 to 62 °C.

Turning to `CCOC(=O)c1ccc(C(F)(F)F)c(O)n1`, the melting point is 141 to 142 °C. With `Cc1cnc2c(C#N)cnn2c1` the figure was 193 to 194 °C. With `Cn1cc(-c2cc(Cl)cc(Cl)c2)c(=O)c(-c2cc(Cl)cc(Cl)c2)c1` the figure was 275 to 278 °C.

`CCCc1nc2c(N)nc3ccccc3c2n1CC1(O)CCC1` registered a melting point of 228 to 229 °C. Consider `CCCCOCc1cc2ccccc2oc1=O`, for which the melting point was 69 to 70 °C. `CC(C)(C)OC(=O)NCC(=O)OCCCNc1ccc(O)c2c1C(=O)c1ccccc1C2=O` displayed a melting point of 124 °C. In turn, `CC(=O)NCC1CN(c2ccc(N3CCN(c4ccc([N+](=O)[O-])s4)CC3)c(F)c2)C(=O)O1` (centres undefined) displayed a melting point of 171 to 174 °C. With `O=C(O)C1=Cc2c(cc(Cl)c(Cl)c2Cl)OC1C(F)(F)F` (centres undefined) the figure was 236 to 239 °C; with `CN(Cc1ccccc1)C(=O)c1c(-c2ccncc2)c(-c2ccc(F)cc2)nn1CCO`, 136 to 138 °C.

For `Cc1ccc(-n2nc3c(cc2=O)CCc2sc(CO)cc2-3)cc1`, the melting point is 166 to 169 °C. Regarding `CC1(C)CNc2cc3[nH]c(-c4ccncc4)nc3cc21`, the melting point lay in the range of 147 to 149 °C. With `OCc1cnc(Cl)cc1Cl` the figure was 73 to 77 °C; with `Cc1cc([N+](=O)[O-])ccc1NC=O`, 162 °C; with `NC(=O)c1c(F)ccc(OCc2nc3ccc(OC(F)(F)F)cc3s2)c1F`, 174 to 175 °C. With `CC(C)CC(NS(=O)(=O)c1cccc2ccccc12)C(=O)NC(C(C)C)C(O)c1c(-c2ccccc2)c1=O` (centres undefined) the figure was 109 to 115 °C. With `C=C(NC(=O)C1CCCN1C(=O)OC(C)(C)C)C(=O)O` (centres undefined) (Boc-[ξP]-[Dha]-OH) the figure was 154 to 156 °C; with `Cc1cc(C2=C(c3cccc(F)c3)C(=O)C(C)(C)O2)ccc1S(N)(=O)=O`, 81 to 82 °C; with `CCCCCCN1CCC[C@H](NCc2ccccc2OC)[C@@H]1c1ccccc1` (relative stereo), 48 to 50 °C. In turn, `CCCOc1ccccc1-c1nc2nc(NCCC(=O)OCC)ncc2c(=O)[nH]1` showed a melting point of 142 to 143 °C.

`CC(C)N1CCN(S(=O)(=O)c2cccc(NC(=O)Nc3ccc(C(F)(F)F)cc3)c2)CC1` registered a melting point of 117 to 122 °C. In the case of `COCCOc1cc(N(C)S(=O)(=O)c2cccs2)c2[nH]c(C(=O)O)cc2c1`, the melting point lay within 198 to 199 °C. In turn, `CCN(CC)c1ccc2nc3c4ccccc4c(=Nc4nc5ccc(Cl)cc5s4)cc-3oc2c1` gave a melting point of 229 to 231 °C.

Molecule `NCC1CCCC(CNc2ncc3ncnc(Nc4ccc(F)c(Cl)c4)c3n2)C1` (centres undefined) showed a melting point of 145 to 148 °C. On to `CCCCc1oc2ccccc2c1C(Sc1nc2ccccc2s1)c1ccc(-c2ccc(O)cc2)cc1` (centres undefined), for which the melting point is 130 to 132 °C. With `COC(Cc1ccc(OCCc2nc(-c3ccccc3)oc2C)c2ccsc12)C(=O)O` (centres undefined) the figure was 129 to 131 °C; with `CC(C)(C)OC(=O)N1CCC(C(=O)c2nc3ccccc3n2Cc2ccc(F)cc2)CC1`, 114 to 115 °C; with `CC(C)(CF)C(O)(Cn1ncnc1S)C(Cl)=CCl` (centres undefined), 162 to 164 °C. With `Cc1nc(N2CCN(CCC3CC3)C2=O)sc1C(=O)NCc1ccc(F)cc1` the figure was 122 to 123 °C; with `CCOc1n[nH]c(=O)n1C1CC1`, 144 to 145 °C. With `O=C(CCl)CCc1ccc(Cl)cc1` the figure was 65 to 67 °C; with `Cc1c2ccccc2c(-c2cc(Br)c(O)c(Br)c2)c2c1sc1ccccc12`, 224 to 226 °C.

The molecule `CC(C)(C)c1ccc(C(=O)Nc2ccc3oc4c(c3c2)CCCC4)cc1` registered a melting point of 185 to 186 °C. With `CCCNC(=O)NNC=NC(=O)c1nc(Cl)c(N)nc1N` the figure was 220 to 221 °C; with `C=C(Cc1ccccc1)C(O)C(NC=O)C(=O)OCC` (centres undefined), 87 to 89 °C; with `N#Cc1ccc2c(c1)[C@@H](OC1=CC(=O)CC1)[C@H](O)C(CF)(CF)O2` (relative stereo), 200 to 201 °C.

Molecule `CCCc1c2c(cc3c(=O)cc(C(=O)O)oc13)CCCC2` returned a melting point of 235 °C. As to `Cc1cc(C)cc(OCC(=O)c2ccccc2)c1`, the melting point was in the range of 104 to 105 °C. `O=[N+]([O-])c1ccc(NS(=O)(=O)c2cccc(C(F)(F)F)c2)c(Cl)c1` came in with a melting point of 126 to 127 °C. With `C=CCOc1ccc(C#N)c(Cl)c1` the figure was 50 to 52 °C; with `O=c1sc2ccccc2n1Cc1nc2ccccc2n1-c1ccccc1`, 196 to 198 °C. The molecule `COc1cccnc1OCC(O)CO` (centres undefined) displayed a melting point of 62 to 65 °C.

In turn, `CC(C)(C)OC(=O)CN1CC(c2cccc3ccccc23)SCC(N2C(=O)c3ccccc3C2=O)C1=O` (centres undefined) came in with a melting point of 211 to 213 °C. In turn, `CNc1nn(-c2ccc(C)c3c2OC(C)(C)C3)c(=O)o1` gave a melting point of 183 to 184 °C. With `Cc1cc(C(=O)O)c(O)cc1C(N)C(=O)O` (centres undefined) the figure was above 250 °C; with `O=C(O)CCC(=O)N1CCN(c2ccncc2)CC1`, 261 to 263 °C; with `CCOC(=O)c1c2ccc(Cl)cc2c(-c2ccccc2)n1CCC(C)(C)CCBr`, 87 to 88 °C. Take `CS(=O)(=O)Oc1ccc(-c2c3ccccc3c(I)c3sc4ccccc4c23)cc1`: the melting point fell in the range of 176 to 186 °C. With `COc1ccc(C(=O)CC(=O)OC(C)(C)C)c(O)c1` the figure was 40 to 42 °C; with `COC(=O)/C=C/[C@H](O)[C@H](Cc1ccccc1)NC(=O)OC(C)(C)C`, 108 to 109 °C. `COc1cc2c(cc1C=O)C(C)(C(F)(F)F)OCC2` (centres undefined) had a melting point of 82 to 93 °C. With `CCCC[C@H](NC(=O)[C@H](CC(C)C)NC(=O)OCc1ccc(C#N)cc1)C(=O)CSCc1ccco1` the figure was 83 to 89 °C; with `O=C(OC1CCCCCCC1)n1c(-c2cscn2)nc2ccccc21`, 85 to 88 °C.

For the molecule `COc1ccc(NC=O)c(C=O)c1`, the melting point is 125 to 127 °C. With `Cc1cc(C=C2SC(=S)NC2=O)cc2c1OCC(=O)N2Cc1ccc(CN2CCCCC2)cc1` the figure was 277 to 278 °C; with `Cc1c(C(=O)c2ccc(F)cc2)n(N2C(=O)c3ccccc3C2=O)c2ccccc12`, 227 to 228 °C; with `CCCCc1ccc(C(=O)O)cc1C12CC3CC(CC(C3)C1)C2`, 209 to 210 °C.

`CN(C)S(=O)(=O)OCCOc1ccc(-n2ccnc2)cc1` came in with a melting point of 120 to 123 °C. With `O=C(O)c1ccc(C=NS(=O)(=O)c2ccc(Cl)cc2)cc1` the figure was above 245 °C; with `CCOC(=O)c1c(OCc2ccc(-c3ccccc3-c3nnn(C(c4ccccc4)(c4ccccc4)c4ccccc4)n3)cc2)cc(C)nc1C`, 136 to 138 °C; with `O=C(O)C(Cc1ccccc1)Oc1ccc(-c2ccc(-c3c(Br)oc4ccccc34)cc2)cc1` (centres undefined), 148 to 149 °C. Molecule `Cc1oc(-c2ccccc2)nc1COc1ccc(Sc2nc(-c3ccccc3)c(CCC(=O)O)s2)cc1` registered a melting point of 121 to 122 °C. Regarding `CSc1nc2cc(C(F)(F)F)ccc2n1NC(C)=O`, the melting point was 175 to 178 °C.

`CC(CCCC(C)(C)O)C1CCC2C3=CC=C4CC(O)C(OCCCO)C(O)C4(C)C3CCC21C` (centres undefined) returned a melting point of 118 to 120 °C. Molecule `Nc1nc(C(=O)NCCO)cs1` had a melting point of 118 to 120 °C. With `CCCCCCCCCCCCCCC(NC(C)=O)(C(=O)OCC)C(=O)OCC` the figure was 58.5 to 60.5 °C. In turn, `Nc1ncnc2c1c(-c1ccc(Oc3ccccc3)cc1)cn2CC(=O)NCCN1CCNCC1` registered a melting point of 138 to 140 °C. Regarding `O=C(CC(F)(F)F)NNc1nccc(-c2ccc(OC3CCOCC3)c(Cl)c2)c1Cl`, the melting point is 191 °C. Turning to `Cc1ccccc1-c1cc(O)ccc1O`, the melting point lay in the range of 65 to 68 °C. On to `CC(C)(NC(=O)C1=C(C(=O)Nc2cc(OC3CCCC3)c(Cl)cc2F)CCCC1)c1ccc(Cl)cc1`, for which the melting point was 218 to 219 °C. On to `COc1ccc(Cn2c(=O)c3cc(Cl)ccc3n(CCCCBr)c2=O)cc1`, for which the melting point fell in the range of 146 to 147 °C.

As to `COC(=O)Nc1ccc(-c2cccc(C3=NC(C)(C)Cc4cc(OC)c5c(c43)CC(C)(C)O5)c2)cc1`, the melting point fell in the range of 129 to 133 °C.

Molecule `Cc1ccc(C=CC(=O)NC(C)c2ccc(NS(C)(=O)=O)c(F)c2)cc1C` (centres undefined) showed a melting point of 212 to 213 °C. With `CCOC(=O)C(=O)Nc1c([N+](=O)[O-])sc2c(Cl)cc(Cl)cc12` the figure was 177 to 180 °C; with `CSCc1ccc(C(=O)c2ccc(Cl)cc2)cc1`, 59 to 61 °C; with `CC(C)(C)CCCCCCCCCCCC(=O)O`, 37 to 39 °C.

`CC1CC(=O)NN=C1c1ccc2c(c1)OCC(=O)N2C` (centres undefined): the melting point was in the range of 188 to 190 °C.

On to `O=C1c2ccc3c4cccc5cccc(c6ccc(c2c36)C(=O)N1C1CCCCCCCCCCC1)c54`, for which the melting point was 285 °C. With `CC(C)(C)n1ncc(C(=O)c2ccc(S(C)(=O)=O)c(-c3ccccc3)c2Cl)c1O` the figure was 262 to 264 °C. With `O=C(O)c1cnc2cc(F)c(F)cc2c1` the figure was 290 °C. Consider `COC(=O)NNC(=O)CC(C)(C)C`, for which the melting point lay within 83 to 84.5 °C.

`CC(=O)CN1C(=O)c2ccc3ccccc3c2S1(=O)=O`: the melting point lay within 163 to 165 °C. As to `O=C(O)c1cnn2c(C(F)(F)F)cc(-c3ccc(Cl)cc3)nc12`, the melting point came to 238 °C. With `CC(O)(c1ccccc1)C1CCNCC1` (centres undefined) the figure was 172 to 175 °C. Regarding `Cc1nc2scc(C)n2c(=O)c1CCN1CCC(c2noc3cc(F)ccc23)CC1`, the melting point was 231 °C.

`CC(C)(C)OC(=O)CCc1cccc(-c2nc(=O)c3ccccc3s2)n1` had a melting point of 166 °C. With `CCOC(=O)c1[nH]c2cc(Cl)cc(Cl)c2c1NCCC(=O)c1ccccc1Cc1ccccc1` the figure was 208 to 209 °C.
